Data: patent publication US8445441B2, “Inhibitors of BCL-2” (Case Western Reserve University, priority 2007, dated 2013)

Key:
Jurkat cells [1] = experiment: anti-CD3-induced apoptosis (apoptotic nuclei); format: cell-based; conditions: 60 μM peptide with Chariot, 5 μg/ml anti-CD3, 24 hr, anti-CD3 alone 20%-30%
Protocol: FIG. 7 illustrates peptide 2 Enhances Anti-CD3-Induced Apoptosis in Bcl-2-Positive Cells (A) Typical apoptotic nuclear morphology (arrow, Hoechst 33342 stain) 24 hr after 5 μg/ml anti-CD3 treatment of Jurkat cells. Scale bars, 10 μm. (B) Bcl-2(−) and Bcl-2(+) WEHI7.2 cells were pre-incubated±60 μM peptides plus Chariot reagent and then incubated with 20 μg/ml anti-CD3 for 24 hr. Symbols represent the percentage of cells (mean±SEM) with apoptotic nuclei in three experiments for Bcl-2(−) and five experiments for Bcl-2(+) cells (200 cells counted per coverslip). (C) Jurkat cells were pre-incubated±60 μM peptides±Chariot reagent and then incubated with 5 μg/ml anti-CD3 for 24 hr. Symbols represent the percentage of cells (mean±SEM) with apoptotic nuclei in five experiments (240 cells counted per coverslip).
Peptide 2 also attenuated Bcl-2's inhibition of anti-CD3-induced apoptosis in Jurkat cells. In preliminary studies (data not shown), we tested several anti-CD3 concentrations. Higher concentrations of anti-CD3 induced high levels of apoptosis that might obscure the effect of the peptide. We therefore used 5 μg/ml anti-CD3, sufficient to induce 20%-30% apoptosis.

Jurkat cells [2] = experiment: anti-CD3-induced Ca2+ elevation by digital imaging; format: cell-based; conditions: Jurkat cells; 60 μM peptide with Chariot reagent
Protocol: (§1) FIGS. 6A-D illustrates peptide 2 (SEQ ID NO:3) Reverses Bcl-2's Inhibition of Anti-CD3-Induced Ca^2+Elevation. (A) Representative Ca^2+ traces (each the mean of ˜65 cells) recording anti-CD3 (arrow, time of addition)-induced Ca^2+ elevation in Bcl-2(+) WEHI7.2 cells. Peptide (60 μM) uptake was facilitated by Chariot reagent. (B) Peak anti-CD3 induced Ca^2+ elevation in Bcl-2(−) and Bcl-2(+) WEHI7.2 cells treated with peptides as in (A) [mean±SEM, five experiments for Bcl-2(−) and seven experiments for Bcl-2(+) cells, with mean 68 cells per sample per experiment]. (C) Representative Ca^2+ traces in Jurkat cells (mean 85 cells each). Treatment conditions are the same as in (A), except that a control involving addition of peptide 2 without Chariot reagent has been added. (D) Peak anti-CD3-induced Ca^2+ elevation in Jurkat cells treated with peptides as in (C) (mean±SEM, seven experiments, mean 81 cells per sample per experiment).
(§2) Next we investigated whether peptide 2 also reverses Bcl-2's inhibitory effect on Ca^2+ release through the IP3R in Bcl-2(+) and (−) WEHI7.2 clones, newly derived WEHI7.2 mixed populations exogenously expressing Bcl-2, and Jurkat cells. Optimal conditions for peptide delivery and anti-CD3 concentration were determined in preliminary experiments. Peptide delivery in the lipid bilayer is 100%, whereas the penetration of peptide 2 into cells is much less, accounting for the lesser effect in cells. Therefore, a higher concentration of peptide (60 μM) was delivered into cells using the Chariot delivery reagent. Cytoplasmic Ca^2+ concentration was continuously measured at a single-cell level by digital imaging during anti-CD3 treatment. Representative Ca^2+ traces from Bcl-2(+) WEHI7.2 cells are shown in FIG. 6A, and the average Ca^2+ elevation induced by anti-CD3 in seven experiments is summarized in FIG. 6B. Observed variations in lag phase are at least partially attributable to the fact that lymphocytes are only loosely adherent to coverslips and thus rapid buffer exchange is not possible during antibody additions. Peptide 2 enhanced anti-CD3-induced Ca^2+ elevation in Bcl-2(+) WEHI7.2 cells by 40%. […] Peptide 2 had no effect on Ca^2+ elevation when added to the cells in the absence of the Chariot reagent. […] The low Bcl-2 level in Jurkat cells and the barely detectable endogenous Bcl-2 in Bcl-2(−) WEHI7.2 cells are consistent with the higher amplitude and longer duration of the Ca^2+ response in these cells in contrast to Bcl-2(+) WEHI7.2 cells (compare FIGS. 6A and 6B to FIGS. 6C and 6D). Thus, peptide 2 modulated anti-CD3-induced Ca^2+ elevation in both Bcl-2(+) WEHI7.2 cells and Jurkat cells, consistent with the ability of peptide 2 to disrupt Bcl-2-IP3R interaction.

WEHI7.2 cells = experiment: anti-CD3-induced Ca2+ elevation by digital imaging; format: cell-based; conditions: Bcl-2(+) WEHI7.2 cells; 60 μM peptide with Chariot reagent
Protocol: as §1, §2

Bcl-2-IP3R interaction [3] = target: T1, Bcl-2-IP3R interaction (Homo sapiens, UniProt P10415); experiment: GST pull-down of Bcl-2 from Bcl-2(+) WEHI7.2 extracts with GST-IP3R domain 3; format: binding, mouse; parameters: expressed in transfected cells; host or cells: Bcl-2(+) WEHI7.2 cells (source of Bcl-2); conditions: 1 mM peptide
T1 sequence (P10415 whole entry, the tested form may be a part): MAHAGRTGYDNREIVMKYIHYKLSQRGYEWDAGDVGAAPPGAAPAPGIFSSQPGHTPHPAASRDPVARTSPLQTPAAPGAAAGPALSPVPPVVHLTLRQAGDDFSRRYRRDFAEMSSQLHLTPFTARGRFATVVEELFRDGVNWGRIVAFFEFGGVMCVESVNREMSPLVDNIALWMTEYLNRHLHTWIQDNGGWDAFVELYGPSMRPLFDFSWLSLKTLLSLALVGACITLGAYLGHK
Description: To identify where Bcl-2 interacts on the IP3R, we used a series of GST-IP3R fusion constructs corresponding to five fragments covering the first N-terminal 2216 amino acids and 1 fragment corresponding to the last 160 amino acids of mouse IP3R type 1 (FIG. 3). These fragments are located in the cytoplasm and coincide with “natural” domains generated by limited proteolysis. The transmembrane domain was not included. After purification, fragments migrated as single prominent bands corresponding to their expected molecular weights, although some minor degradation products were detected.
The first set of GST pull-down experiments utilized extracts of Bcl-2(+) WEHI7.2 cells and Jurkat cells as two independent sources of Bcl-2. Cell extracts were incubated with GST-IP3R fragments prebound to glutathione sepharose resin, with equal loading of the GST-IP3R fragments. […] These experiments were repeated a total of five times with the same result. It is important to note that, following incubation of cell extracts with GST-IP3R fragments on the glutathione sepharose resin, the resin was washed extensively.
Since the IP3R binding region was narrowed down to the 80 amino acid subdomain 3a1 (aa 1347-1426), we designed two 20 amino acid peptides (peptide 1, aa 1365-1384 (SEQ ID NO:2); peptide 2, aa 1389-1408 (SEQ ID NO:3)) based on the degree of homology in this region among different IP3R isoforms. Also, preference was given to regions that have beta-turn and/or α-helical structures, rather than random-coil or nonstructured sequences, expecting that one or both of the peptides could inhibit the Bcl-2-IP3R interaction. Furthermore, the C-terminal region of domain 3a1 was not selected because of its lower accessibility and unpredictable secondary structure (Invitrogen PeptideSelect Design Tool). The scrambled sequence of peptide 2 was also synthesized and used as a control. […] The inhibitory effect of peptide 2 on Bcl-2-IP3R interaction was also detected in coimmunoprecipitation assays employing both Bcl-2(+) WEHI7.2 cells (FIGS. 4A and 4B) and Jurkat cells (FIG. 4C). […]

Bcl-2-IP3R interaction [4] = target: T1, Bcl-2-IP3R interaction; experiment: coimmunoprecipitation of Bcl-2 with IP3R from cell extracts; format: binding; parameters: expressed in transfected cells; host or cells: Bcl-2(+) WEHI7.2 cells; also Jurkat cells (endogenous Bcl-2); conditions: 400 μM peptide; Bcl-2(+) WEHI7.2 and Jurkat cell extracts
Protocol: FIG. 4 illustrates an IP3R Peptide Inhibits Bcl-2-IP3R Interaction but Not Bim-Bcl-2 Interaction. (A and D) IP3R was immunoprecipitated from extracts of Bcl-2(+) WEHI7.2 cells (C) or Jurkat cells in the presence of 400 μM peptides. Peptide 2, but not peptide 1 or control peptide, inhibited the Bcl-2-IP3R coimmunoprecipitation. Summary of Bcl-2 immunoblot signal intensities in three […] experiments identical to (C) (mean±SEM). (B) Bcl-2 was immunoprecipitated from Bcl-2(+) WEHI7.2 cell extracts in the presence of 400 μM peptides, and coimmunoprecipitation of Bim was detected by anti-Bim immunoblotting. […] (E) Summary of Bim immunoblot signal intensities in three experiments identical to (B) (mean±SEM).
Since the IP3R binding region was narrowed down to the 80 amino acid subdomain 3a1 (aa 1347-1426), we designed two 20 amino acid peptides (peptide 1, aa 1365-1384 (SEQ ID NO:2); peptide 2, aa 1389-1408 (SEQ ID NO:3)) based on the degree of homology in this region among different IP3R isoforms. […] The inhibitory effect of peptide 2 on Bcl-2-IP3R interaction was also detected in coimmunoprecipitation assays employing both Bcl-2(+) WEHI7.2 cells (FIGS. 4A and 4B) and Jurkat cells (FIG. 4C). […]

Bcl-B = target: T2, Bcl-B (Homo sapiens, UniProt Q9HD36); conditions: read-out: inhibitory concentration of 50% (IC50), displacing BH3 peptides; cited from earlier work
T2 sequence (Q9HD36 1-204): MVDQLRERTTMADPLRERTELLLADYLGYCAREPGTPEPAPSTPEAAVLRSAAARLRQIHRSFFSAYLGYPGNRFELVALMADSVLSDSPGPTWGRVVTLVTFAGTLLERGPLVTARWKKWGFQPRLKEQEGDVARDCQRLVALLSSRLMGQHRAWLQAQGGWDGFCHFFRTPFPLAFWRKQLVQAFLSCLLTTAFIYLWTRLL

Bfl-1 = target: T3, Bfl-1 (Homo sapiens, UniProt Q16548); conditions: read-out: inhibitory concentration of 50% (IC50), displacing BH3 peptides; cited from earlier work
T3 sequence (Q16548 1-175): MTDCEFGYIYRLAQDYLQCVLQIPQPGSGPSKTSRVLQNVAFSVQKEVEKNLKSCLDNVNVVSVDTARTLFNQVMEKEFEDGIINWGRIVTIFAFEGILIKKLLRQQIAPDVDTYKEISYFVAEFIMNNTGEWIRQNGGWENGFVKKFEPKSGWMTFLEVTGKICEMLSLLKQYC

Bcl-XL = Bcl-XL (Homo sapiens, UniProt Q07817); conditions: read-out: inhibitory concentration of 50% (IC50), displacing BH3 peptides; cited from earlier work
Chain of Bcl-XL (Q07817 whole entry, species assumed): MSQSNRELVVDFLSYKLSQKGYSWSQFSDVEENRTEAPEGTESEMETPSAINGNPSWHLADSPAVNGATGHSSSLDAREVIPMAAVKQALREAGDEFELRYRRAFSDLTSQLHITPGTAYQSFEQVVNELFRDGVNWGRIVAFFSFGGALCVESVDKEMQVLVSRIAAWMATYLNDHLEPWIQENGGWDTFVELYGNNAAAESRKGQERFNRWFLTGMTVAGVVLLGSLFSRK

| Compound | anti-CD3-induced apoptosis (percentage of apoptotic cells) (Jurkat cells [1]) | enhancement of anti-CD3-induced Ca2+ elevation (Jurkat cells [2]) | enhancement of anti-CD3-induced Ca2+ elevation (WEHI7.2 cells) | amount of Bcl-2 bound to GST-IP3R domain 3 (Bcl-2-IP3R interaction [3]) | inhibition of Bcl-2-IP3R coimmunoprecipitation (Bcl-2-IP3R interaction [4]) | IC50 (Bcl-B) [nM] | IC50 (Bfl-1) [nM] | IC50 (Bcl-XL) [nM] |
| --- | --- | --- | --- | --- | --- | --- | --- | --- |
| MDENSPLMYHIHLVELLAVC (listed as Homo sapiens) [peptide 1, 20 amino acid peptide, aa 1365-1384 of IP3R subdomain 3a1] | did not have an effect | did not | did not enhance | partially inhibited | did not inhibit |  |  |  |
| Cc1cc2c(C(C)C)c(O)c(O)c(C=O)c2c(O)c1-c1c(C)cc2c(C(C)C)c(O)c(O)c(C=O)c2c1O [Gossypol, 1,6,7,1′,6′,7′-Hexahydroxy-5,5′-diisopropyl-3,3′-dimethyl-[2,2′]binaphthalenyl-8,8′-dicarbaldehyde] |  |  |  |  |  | ~500 | ~500 | ~500 |
